From patent US7935699B2, “Pyrazole glucokinase activators” (Hoffmann-La Roche Inc., priority 2006, dated 2011) come the findings set out here.

In assay [1] the test system is Diet-Induced Obese (DIO) C57BL/6J mice. The assay can be described thus: Glucokinase activator in vivo screen, blood glucose in DIO mice. The following applies: Mus musculus; 2 hours post 25 mg/kg oral dose in DIO mice, vs control; read-out: % gluc @ 2 H (% glucose lowering vs control). The method, then:
Glucokinase Activator in vivo Screen Protocol in Lean and Diet Induced Obese Mice: Lean or Diet-Induced Obese (DIO) C57BL/6J mice were orally dosed via gavage with Glucokinase (GK) activator (50 mg/kg body weight for lean mice, 25 mg/kg body weight for DIO mice) following a two hour fasting period. Blood glucose determinations were made four times during the six hour post-dose study period.
C57Bl/6J mice were obtained from Jackson Laboratory (Bar Harbor, Me.) and were maintained in a light-dark cycle with lights on from 0600-1800 hr. For studies in lean mice, the mice were received at age six weeks and given ad libitum access to control diet (LabDiet 5001 chow, PMI Nutrition, Brentwood, Mo.), and were at least age 11 weeks at the time of study. For studies in the DIO model, the mice were received at age five weeks and given ad libitum access to Bio-Serv F3282 High Fat Diet (Frenchtown, N.J.), and were at least age 16 weeks at the time of study. The experiments were conducted during the light phase of the light-dark cycle. Mice (n=6) are weighed and fasted for a two hour period prior to oral treatment. GK activators are formulated in Gelucire vehicle (Ethanol:Gelucire44/14:PEG400q.s. 4:66:30 v/w/v. For studies in lean mice, the mice were dosed orally with 5.0 μL per gram of body weight with 5 ml/kg×10.0 mg/ml formulation to equal a 50 mg/kg dose. For studies in DIO mice, the mice were dosed orally with 5.0 μL per gram of body weight with […] formulation to equal a 25 mg/kg dose. Immediately prior to dosing, a pre-dose (time zero) blood glucose reading was acquired by snipping off a small portion of the animal's tail (˜1 mm) and collecting 15 μL blood into a heparinized capillary tube for analysis. Following GK activator administration, additional blood glucose readings were taken at 2, 4 and 6 hours post dose from the same tail wound. Results were interpreted by comparing the mean blood glucose values of six vehicle treated mice with six GK activator treated mice over the six hour study duration.

Assay [2] deals with T1, Recombinant human liver GK1 (GST-GK) (Homo sapiens, UniProt P35557).
T1 construct: made in house; host or cells: E. coli
T1 sequence (P35557 1-466 isoform P35557-2): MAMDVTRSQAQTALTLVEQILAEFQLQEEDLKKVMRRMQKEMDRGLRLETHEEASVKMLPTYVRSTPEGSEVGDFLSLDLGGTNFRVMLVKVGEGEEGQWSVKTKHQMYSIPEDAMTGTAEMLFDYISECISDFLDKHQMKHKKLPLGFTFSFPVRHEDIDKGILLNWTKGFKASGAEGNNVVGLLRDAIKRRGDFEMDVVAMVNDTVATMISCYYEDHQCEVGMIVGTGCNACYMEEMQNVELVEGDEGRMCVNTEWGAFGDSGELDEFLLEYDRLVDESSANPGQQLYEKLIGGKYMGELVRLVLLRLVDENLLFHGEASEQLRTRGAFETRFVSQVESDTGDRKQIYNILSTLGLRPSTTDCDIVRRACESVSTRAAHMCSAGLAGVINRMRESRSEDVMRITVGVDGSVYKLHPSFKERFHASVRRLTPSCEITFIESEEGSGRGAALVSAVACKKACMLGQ
The assay can be described thus: Glucokinase in vitro assay (G6PDH-coupled, NADH at OD340). The class given is biochemical. The conditions noted are these: 25° C., 5 mM D-glucose, 10% DMSO, GST-GK. The procedure: Glucokinase In Vitro Assay Protocol: Glucokinase (GK) was assayed by coupling the production of glucose-6-phosphate to the generation of NADH with glucose-6-phosphate dehydrogenase (G6PDH, 0.75-1 kunits/mg; Boehringer Mannheim, Indianapolis, Ind.) from Leuconostoc mesenteroides as the coupling enzyme (Scheme 2).
Recombinant human liver GK1 was expressed in E. coli as a glutathione S-transferase fusion protein (GST-GK) [Liang et al, 1995] and was purified by chromatography over a glutathione-Sepharose 4B affinity column using the procedure provided by the manufacturer (Amersham Pharmacia Biotech, Piscataway, N.J.).
The assay was conducted at 25° C. in a flat bottom 96-well tissue culture plate from Costar (Cambridge, Mass.) with a final incubation volume of 120 μL. The incubation reaction contained the following: 25 mM Hepes buffer (pH 7.1), 25 mM KCl, 5 mM D-glucose, 1 mM ATP, 1.8 mM NAD, 2 mM MgCl2, 1 μM sorbitol-6-phosphate, 1 mM dithiothreitol, test drug or 10% DMSO, 1.8 unit/ml G6PDH, and GK (see below). All organic reagents were >98% pure and were from Boehringer Mannheim with the exceptions of D-glucose and Hepes which were from Sigma Chemical Co, St Louis, Mo. Test compounds were dissolved in DMSO and were added to the incubation reaction minus GST-GK in a volume of 12 μL to yield a final DMSO concentration of 10%. This mix was pre-incubated in the temperature controlled chamber of a SPECTRAmax 250 microplate spectrophotometer (Molecular Devices Corporation, Sunnyvale, Calif.) for 10 minutes to allow temperature equilibrium and then the reaction was started by the addition of 20 μL GST-GK.
After addition of enzyme, the increase in optical density (OD) at 340 nm was monitored over a 10 minute incubation period as a measure of GK activity. Sufficient GST-GK was added to produce an increase in OD340 of 0.08 to 0.1 units over the 10 minute incubation period in wells containing 10% DMSO but no test compound. Preliminary experiments established that the GK reaction was linear over this period of time even in the presence of activators that produced a 5-fold increase in GK activity. The GK activity in control wells was compared with the activity in wells containing test GK activators, and the concentration of activator that produced a 50% increase in the activity of GK, i.e., the SC1.5, was calculated.

As to `COCCn1ccc(NC(=O)[C@H](CC2CCCC2)c2cccc(C(F)(F)F)c2)n1` [Example 84, 3-Cyclopentyl-N-[1-(2-methoxy-ethyl)-1H-pyrazol-3-yl]-2(R)-(3-trifluoromethyl-phenyl)-propionamide], the change in vivo at 25 mg/kg in assay [1] was -24.5%. With `O=C(Nc1ccn(CCCO)n1)[C@H](CC1CCCC1)c1cccc(C(F)(F)F)c1` [Example 85, 3-Cyclopentyl-N-[1-(3-hydroxy-propyl)-1H-pyrazol-3-yl]-2(R)-(3-trifluoromethyl-phenyl)-propionamide], the change in vivo at 25 mg/kg in assay [1] was -20.5%. Moreover, the “SC1.5 (concentration of activator that produced a 50% increase in the activity of GK)” value in assay [2] is 0.779 µM.
